Five molecules from US11690847B2, “Combinations of 15-PGDH inhibitors with corticosteroids and/or TNF inhibitors and uses thereof” (CASE WESTERN RESERVE UNIVERSITY, priority 2016, dated 2023) can be followed below.

In series [1] the test system is DSS induced colitis. Briefly: DSS colitis treatment study: (+) SW033291, dexamethasone or combination from day 8. The format is in vivo, mice. The conditions noted are these: (+) SW033291 5 mpk IP twice daily, dexamethasone 0.06 mpk IP daily.
Series [2] deals with DSS induced colitis. Nature of the series: dextran sodium sulfate (DSS) induced colitis, 2% DSS days 1-7, SW033291 versus vehicle. The format is in vivo, FVB male mice. On the procedure:
In the study, 8-12 week old FVB male mice were fed with 2% DSS in drinking water for days 1-7, and then switched to normal drinking water beginning on day 8, and continued through day 22. […] Clinical scoring (body weight, rectal bleeding, stool consistency) was recorded daily, endoscopic scoring (ulcer number, mucosal thickening, and vascular pattern) was assessed on days 8, 11, 15. Mice were sacrificed on days 1, 8, 15 and 22 for assessment of colon length, colon weight, ulcer number, ulcer area, and crypt damage.
The Disease Activity Index is calculated as an equally weighted average of the change from baseline weight, the consistency of stool, and the presence of rectal bleeding, with each component normalized to span an identical numerical range.
In addition to the gross visual inspection and scoring of colitis activity by the MEICS index, full length colons of mice were formalin fixed and paraffin embedded, and microscopic scoring of crypt damage was performed using the 0-4 severity scale of Cooper H S. Et al., Lab Invest. 1993; 69:238-249. For this analysis, the colons were divided into 3 segments of proximal, middle, and distal colon, each approximately 1.6 cm in length, with each segment was further subdivided into 4 sections each approximately 4 mm in length. For each section the crypt damage severity score was multiplied by the length in mm of the damaged area, creating a 0-16 cryptitis severity index. An average cryptitis severity index was calculated for each segment (proximal, middle, and distal colon), and the summed whole colon cryptitis severity index was determined on a scale of 0-48 for each mouse colon.
Mice were injected with BrdU at 100 mg/kg IP 3 hours before sacrifice and then full length colons were formalin fixed and embedded in paraffin. S-phase cells, that have incorporated BrdU into DNA, were visualized by immuno-fluorescent staining of 5 μm thick sections with an antibody that detects the BrdU. Colonic crypts were visualized by immuno-fluorescent staining with an antibody to the epithelial marker E-Cadherin. […] Red immune-fluorescence identifies BrdU positive nuclei, and green immune-fluorescence identifies E-Cadherin positive colonocytes. The number of BrdU positive cell per crypt is determined by counting the number of dual labeled red and green cells per average crypt. Green only cells that are not in S-phase are not counted, and red only cells, that are likely stromal cells outside of crypts, are also not counted. […] The graph depicts the sum of the average number of BrdU positive cells per crypt in the distal colon plus the average number of BrdU positive cells per crypt middle colons of control (Cn), […] treated (Tx), and 15-PGDH knockout mice (KO) on day 1, day 8, and day 15 of the DSS treatment protocol.

A short description of series [3]: stability on incubation with hepatocyte extracts. The series is classed as in vitro ADME.
The nature of series [4]: stability on incubation with hepatocyte cell lines. The format is in vitro ADME.
Series [5] is described as follows: stability on incubation with mouse liver extracts. The series is classed as in vitro ADME.
Series [6] is described as follows: stability on incubation with rat liver extracts. The format is in vitro ADME.
Series [7] can be described thus: stability on incubation with human liver extracts. The format is in vitro ADME.

Turning to `CCCC[S+]([O-])c1sc2nc(-c3cccs3)cc(-c3ccccc3)c2c1N` (single isomer, unassigned; (+)) [(+) SW033291], the “daily weights (weight loss)” value with DSS induced colitis [1] (days 1-17, from day 8, FIG. 15) is “some amelioration of weight loss”.
Consider `CCCC[S+]([O-])c1sc2nc(-c3cccs3)cc(-c3ccccc3)c2c1N` (centres unmarked) [SW033291], for which, in the series on DSS induced colitis [2] (5 mg/kg IP twice daily, 22 days, FIG. 1), the “average change from baseline weight versus control” value is listed as “greater weight at all time points”. Moreover, the “weight gain after washout of DSS versus control” value with DSS induced colitis [2] (5 mg/kg IP twice daily, P=0.001, FIG. 1) is recorded as “faster weight gain”. For the same molecule, the “Wt @sacrifice” value is 25.9 ± 0.7 gm with DSS induced colitis [2] (Baseline), 26.4 ± 0.5 gm in the series on DSS induced colitis [2] (Day 8), 25.2 ± 0.9 gm in the series with DSS induced colitis [2] (Day 15) and 28.2 ± 0.5 gm with DSS induced colitis [2] (Day 22). For the same molecule, the “body weight versus vehicle control (in words)” value in the series with DSS induced colitis [2] (day 22) is on record as “greater body weight”. Moreover, the “colon length versus vehicle control (in words)” value in the series on DSS induced colitis [2] (day 22) is recorded as “greater colon lengths”. Besides, the “ulcer formation prevented (colonoscopy)” value with DSS induced colitis [2] (days 8, 11, 15, versus control, FIG. 4A) is “two-thirds”. Also, the “MEICS score versus vehicle” value with DSS induced colitis [2] (days 8, 11 and 15, FIG. 7) is recorded as “significantly less colitis activity”.
In the case of `C[C@@H]1C[C@H]2[C@@H]3CCC4=CC(=O)C=C[C@]4(C)[C@@]3(F)[C@@H](O)C[C@]2(C)[C@@]1(O)C(=O)CO` [dexamethasone, reference compound], the “percent decrease in total DAI (relative disease reduction)” value in the series on DSS induced colitis [1] (area under the DAI curve, FIG. 17B) turned out to be 15%.
Consider `CCCC[S+]([O-])c1sc2nc(-c3cccs3)cc(-c3ccccc3)c2c1N` (centres unmarked) [formula (IX)], for which the “chemical stability when incubated with hepatocyte extracts” value in series [3] was “chemically stable”. Further, the “chemical stability when incubated with hepatocyte cell lines” value in series [4] is on record as “chemically stable”.
As for `CCCC[S+]([O-])c1sc2nc(-c3nccs3)cc(-c3cnc(C)n3C)c2c1N` (centres unmarked) [formula (X)], the “chemical stability when incubated with liver extracts” value in series [5], in series [6] and in series [7] was “chemically stable” throughout.
